Measured values reported in patent publication US10993923B2, “Method for ameliorating fibrosis using 1-[4-chloro-3-(trifluoromethyl)phenyl]-3-[3-(4-cyanophenoxy)phenyl]urea” (priority 2016, dated 2021).

Key:
[1] = tested on: TGF-β, PDGFR and STAT3 pathways in LX2 cells; assay: Western blot of signalling proteins in LX2 cells; format: cell-based, human; settings: FIG. 16D, 16E
Method: Rat immortal hepatic stellate cell line HSC-T6 and LX2 human hepatic stellate cell line were provided by Professor Scott Friedman of Mount Sinai Hospital in New York, USA. The primary mouse HSCs were obtained via the way: after intubating the hepatic portal vein of the mouse, the cells were perfused with […] and ethylene glycol bis-aminoethyl ether tetraacetic acid (EGTA) buffer in situ, and then collagenase was injected to digest the liver tissue, and then the primary mouse HSCs were isolated by Histodnz gradient. HSC-T6 cells were cultured in Waymouth medium; LX2 cells and primary mouse HSCs were cultured in Dulbecco's Modified Eagle Medium (DMEM) containing 10% fetal bovine serum (FBS), 100 μg/mL penicillin, 100 μg/mL streptomycin, and 2 mM L-glutamine HSC-T6 cells, LX2 cells and primary mouse HSCs were cultured in a humidified incubator containing 5% carbon dioxide at 37° C. After adding the FBS, the resting HSC is started. […] Whole-cell extracts were obtained via RIPA buffer (Millipore, USA) and protein concentrations were quantified via a BCA protein assay kit (Thermo Fisher Scientific, USA). 20 or 25 μg of protein was added to various percentages of SDS-sodium dodecyl sulfate-acrylamide gel and blotted onto a polyvinylidene fluoride (PVDF) membrane. […] Proteins were detected by Immobilon Western Chemiluminescent HRP substrate (Millipore, USA) or ECL detection system (UVP Corporation, USA). […] Plasmids encoding the human wild-type SHP-1 and SHP-1 mutant, in which the N-SH2 domain was […] was changed into an […]) were cloned into the pCMV6-entry vector with myc-tag. These mutants were confirmed through DNA sequencing. […] (Chicago, Ill., USA).

LX2 cells = assay: Apoptosis (Annexin V / propidium iodide flow cytometry), LX2 cells; format: cell-based, human; settings: LX2; FIG. 16D, 16E
Method: Rat immortal hepatic stellate cell line HSC-T6 and LX2 human hepatic stellate cell line were provided by Professor Scott Friedman of Mount Sinai Hospital in New York, USA. The primary mouse HSCs were obtained via the way: after intubating the hepatic portal vein of the mouse, the cells were perfused with […] and ethylene glycol bis-aminoethyl ether tetraacetic acid (EGTA) buffer in situ, and then collagenase was injected to digest the liver tissue, and then the primary mouse HSCs were isolated by Histodnz gradient. HSC-T6 cells were cultured in Waymouth medium; LX2 cells and primary mouse HSCs were cultured in Dulbecco's Modified Eagle Medium (DMEM) containing 10% fetal bovine serum (FBS), 100 μg/mL penicillin, 100 μg/mL streptomycin, and 2 mM L-glutamine HSC-T6 cells, LX2 cells and primary mouse HSCs were cultured in a humidified incubator containing 5% carbon dioxide at 37° C. After adding the FBS, the resting HSC is started. […] The experiment was carried out following the manufacturer's instructions, and each group was triple repetition. […] The proportion of apoptotic cells was mixed the early (Annexin V+/PI-) and the late (Annexin V+/PI+) apoptotic cells measured by BD FACS Verse flow cytometry (BD, USA). Plasmids encoding the human wild-type SHP-1 and SHP-1 mutant, in which the N-SH2 domain was […] was changed into an […]) were cloned into the pCMV6-entry vector with myc-tag. These mutants were confirmed through DNA sequencing. […] (Chicago, Ill., USA).

SHP-1 [2] = target: T1, SHP-1 (Rattus norvegicus, UniProt P81718); assay: SHP-1 phosphatase activity, HSC-T6 cells; format: cell-based; settings: sorafenib 5 μM, compound 2.5 or 5 μM, FIG. 16C
T1 construct: endogenous in cells; host or cells: HSC-T6 cells
T1 sequence (P81718 whole entry): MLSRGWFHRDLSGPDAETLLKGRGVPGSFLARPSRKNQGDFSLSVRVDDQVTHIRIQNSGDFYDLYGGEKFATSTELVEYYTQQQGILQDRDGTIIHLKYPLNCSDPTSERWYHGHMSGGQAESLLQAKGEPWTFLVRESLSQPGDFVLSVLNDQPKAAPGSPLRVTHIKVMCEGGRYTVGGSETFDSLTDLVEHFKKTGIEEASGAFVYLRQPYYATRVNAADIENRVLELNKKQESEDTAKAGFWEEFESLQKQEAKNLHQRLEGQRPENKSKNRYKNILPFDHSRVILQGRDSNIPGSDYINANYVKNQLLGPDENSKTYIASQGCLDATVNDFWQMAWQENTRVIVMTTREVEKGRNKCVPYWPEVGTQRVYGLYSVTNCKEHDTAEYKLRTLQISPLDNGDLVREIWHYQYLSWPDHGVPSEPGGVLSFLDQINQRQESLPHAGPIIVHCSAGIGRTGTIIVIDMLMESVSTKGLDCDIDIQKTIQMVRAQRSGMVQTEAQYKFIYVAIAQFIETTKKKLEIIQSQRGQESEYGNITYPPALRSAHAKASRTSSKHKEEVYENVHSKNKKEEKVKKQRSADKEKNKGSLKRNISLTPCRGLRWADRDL

[3] = tested on: CCl4-induced hepatic fibrosis in mice; assay: CCl4-induced hepatic fibrosis mice prevention model; format: in vivo, male C57BL/6J mice; settings: concurrently administered with CCl4 for 4 weeks; FIG. 11A-11E
Description: (§1) In male C57BL/6J mice, liver fibrosis was induced by carbon tetrachloride (CCl4). The mice were given peritoneal injection of carbon tetrachloride for 4 or 8 weeks every two weeks.
(§2) The mice liver samples were stored in 10% formaldehyde, dehydrated with gradient alcohol, embedded in paraffin blocks, sectioned to a thickness of 3 μm, placed on glass slides, and stained with Picrosirius Red Stain kit (ScyTek, USA), following the manufacturer's instructions. The severity of liver fibrosis was graded according to the Ishak fibrosis score. Quantitative collagen-positive area (qCPA) was determined by densitometry via ImageJ software. Hepatic hydroxyproline concentrations were measured by the hydroxyproline assay kit (Biovision, USA), following the manufacturer's instructions Immunohistochemistry was performed by the Leica BOND-MAX automatic chromatograph (Leica Biosystems, Germany), following the manufacturer's instructions.

SHP-1 [4] = target: T2, SHP-1 (Homo sapiens, UniProt P29350); assay: SHP-1 phosphatase activity, LX2 cells; format: cell-based; settings: LX2; sorafenib 5 μM, compound 2.5 or 5 μM; FIG. 16C
T2 construct: LX2 cell protein extract were reacted with anti-SHP-1 antibody in immunoprecipitation buffer overnight; endogenous in cells; host or cells: LX2 cells
T2 sequence (P29350 whole entry): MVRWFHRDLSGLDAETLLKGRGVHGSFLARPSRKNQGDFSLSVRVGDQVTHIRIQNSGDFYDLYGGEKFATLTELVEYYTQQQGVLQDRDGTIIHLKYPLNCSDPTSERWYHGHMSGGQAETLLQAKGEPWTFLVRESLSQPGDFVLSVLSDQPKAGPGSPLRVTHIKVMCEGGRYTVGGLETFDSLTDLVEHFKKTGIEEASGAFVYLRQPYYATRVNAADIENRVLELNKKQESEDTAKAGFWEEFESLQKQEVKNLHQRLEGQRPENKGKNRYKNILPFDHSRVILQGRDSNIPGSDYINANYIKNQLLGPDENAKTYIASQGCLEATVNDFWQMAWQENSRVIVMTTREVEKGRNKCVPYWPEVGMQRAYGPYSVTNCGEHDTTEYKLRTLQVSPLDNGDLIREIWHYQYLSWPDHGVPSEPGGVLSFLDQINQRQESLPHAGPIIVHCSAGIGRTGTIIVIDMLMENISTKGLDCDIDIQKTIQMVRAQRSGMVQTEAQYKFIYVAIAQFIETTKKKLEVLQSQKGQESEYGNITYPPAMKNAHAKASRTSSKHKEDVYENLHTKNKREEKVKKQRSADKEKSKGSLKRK
Method: After drug treatment, mouse fibroblasts (NIH3T3 cell line), human lung epithelial cells (A549 cell line) or LX2 cell protein extract were reacted with anti-SHP-1 antibody in immunoprecipitation buffer overnight. Protein A/G Sepharose Fast Flow Beads (GE) were added to each sample, followed by a rotation reaction at 4° C. for 3 hours. The 96EnzChek® tyrosine phosphatase assay kit (R-22067) was used for SHP-1 activity assay (Invitrogen, USA).
Plasmids encoding the human wild-type SHP-1 and SHP-1 mutant, in which the N—SH2 domain was truncated (dN1) or one aspartic acid at site 61 was changed into an alanine residue (D61A) were cloned into the pCMV6-entry vector with myc-tag. These mutants were confirmed through DNA sequencing. Smart-pool siRNA, including the control (D-001810-10), and SHP-1 (PTPN6, L-009778-00-0005) were obtained from Dharmacon Inc. (Chicago, Ill., USA). For transient expression, SHP-1 plasmids or siRNA (final concentration, 100 nM) with the Lipofectamine 2000 transfection reagent were pretransfected into the LX2 cells for 24 h, following the manufacturer's instructions.

[5] = tested on: CCl4-induced hepatic fibrosis in mice; assay: CCl4-induced hepatic fibrosis mice treatment model; format: in vivo, male C57BL/6J mice; settings: compound 5, 10, or 20 mg/kg or sorafenib 10 mg/kg, with CCl4 for 6 weeks after 2 weeks CCl4 induction; FIG. 12A
Description: as §1, §2
Continuous variables are presented as mean (standard error), and categorical data are presented as number (percentage), as appropriate. Differences between subgroups were evaluated using the Student t test. Spearman's correlation was used for the association between SHP-1 and serum alanine aminotransferase (ALT). The mouse survival rate was estimated using the Kaplan-Meier method. The log-rank test was used to determine the statistical differences in survival of the different experimental groups. Statistical analysis was performed using STATA (version 13, Stata Corp, College Station, Tex., USA). All tests were two-sided, and P<0.05 was considered significant.

SHP-1 activity (SHP-1 [2]) | SHP-1 activity (SHP-1 [4]) | Compound | p-STAT3 in compound-treated LX2 cells in the presence of a phosphatase inhibitor [1] | compound-induced apoptosis of LX2 cells in the presence of a phosphatase inhibitor (LX2 cells) | hepatic fibrosis (Picrosirius Red staining, qCPA, Ishak fibrosis score, α-SMA expression, hydroxyproline concentration) [3] | hepatic fibrosis (picrosirius red staining) [5]
 |  | O=C(O)COc1ccc(C(=O)CBr)cc1 [PTP inhibitor III, reference compound] | upregulated | rescued |  | 
increases the activity of SHP-1 | increases the activity of SHP-1 | CNC(=O)c1cc(Oc2ccc(NC(=O)Nc3ccc(Cl)c(C(F)(F)F)c3)cc2)ccn1 [sorafenib, reference compound] |  |  | significant fibrosis regression | significantly improved hepatic fibrosis
 |  | Sodium vanadate [reference compound] | upregulation | rescued |  | 
